Experimental data published in publication PMC10167921 (Biochemical pharmacology, 2021).
Values after ≈ are worked out from the molar mass of the structure shown. Values joined by “and” are separate entries in the source; they are usually repeats but may differ in a detail not shown here. Equal values may be shown once. Where a SMILES comes first, the peptide text is derived from it. Bridges are numbered along the chain shown (N, C = ends). Where no end group is shown, it is not given here. [ ]: non-standard residue; d: D form. The star is where a group is joined. X1 = CC[C@H](C)CCCCC(=O)*; Dab = NCC[C@H](N)C(=O)O

Legend:
E.coli ATCC 259922 = assay: Antimicrobial assay; format: cell-based, Escherichia coli; conditions: CaMHB, 5 × 10^5 CFU mL^−1, 37 °C, 20 h, visual, duplicate
S. aureus ATCC 43300 = assay: microbe, parasite or virus in culture; format: cell-based, Staphylococcus aureus; conditions: for Minimum inhibitory concentration: S. aureus ATCC 43300, CaMHB, 5 × 10^5 CFU mL^−1, 37 °C, 20 h, visual, duplicate
B. subtilis ATCC 6051 = assay: microbe, parasite or virus in culture; format: cell-based, Bacillus subtilis; conditions: for Minimum inhibitory concentration: B. subtilis ATCC 6051, CaMHB, 5 × 10^5 CFU mL^−1, 37 °C, 20 h, visual, duplicate
human red blood cells = assay: Hemolysis assay; format: cell-based
HEK293 cells = assay: Cytotoxicity assay; format: cell-based; conditions: HEK293, 24 h at 37 °C, resazurin fluorescence; two independent experiments of duplicate assays (n = 2)
[1] = system: Gram negative and Gram-positive bacterial pathogens; assay: Antimicrobial assay, summary over the bacterial panel; format: cell-based; conditions: range over both strains

Row | Compound | Minimum inhibitory concentration (E.coli ATCC 259922) [µM] | MIC (S. aureus ATCC 43300; Staphylococcus aureus, ATCC43300, 20 h, read-out: Minimum inhibitory concentration) [µM] | MIC (B. subtilis ATCC 6051; Bacillus subtilis, ATCC6051, 20 h, read-out: Minimum inhibitory concentration) [µM] | Minimum inhibitory concentration (S. aureus ATCC 43300) [µM] | Minimum inhibitory concentration (B. subtilis ATCC 6051) [µM] | Hemolysis at fixed concentration (human red blood cells; 100 μM peptide) | Hemolysis at fixed concentration (human red blood cells; 300 μM peptide) | Cytotoxicity (CC50), 50% death of HEK293 cells (HEK293 cells) | MIC against Gram-positive bacteria (Staphylococcus aureus and B. subtilis) [1] [µM]
1 | CC[C@H](C)CCCCC(=O)N[C@@H](CCN)C(=O)N[C@H](C(=O)N[C@@H](CCN)C(=O)N[C@H]1CCNC(=O)[C@H]([C@@H](C)O)NC(=O)[C@H](CCN)NC(=O)[C@H](CCN)NC(=O)[C@H](CC(C)C)NC(=O)[C@@H](CC(C)C)NC(=O)[C@H](CCN)NC1=O)[C@@H](C)O [Colistin, colistin, reference compound] (X1-[Dab]T[Dab][Dab][Dab][dL]L[Dab][Dab]T; lactam 4-C (inferred); N-terminus assumed) | 0.02 to 0.11 | – | – | – | – | – | – | – | –
2 | CN[C@H](CC(C)C)C(=O)N[C@H]1C(=O)N[C@@H](CC(N)=O)C(=O)N[C@H]2C(=O)N[C@H]3C(=O)N[C@H](C(=O)N[C@H](C(=O)O)c4cc(O)cc(O)c4-c4cc3ccc4O)[C@H](O)c3ccc(c(Cl)c3)Oc3cc2cc(c3O[C@@H]2O[C@H](CO)[C@@H](O)[C@H](O)[C@H]2O[C@H]2C[C@](C)(N)[C@H](O)[C@H](C)O2)Oc2ccc(cc2Cl)[C@H]1O [Vancomycin, vancomycin, reference compound] | – | 0.69 to 1.38 (≈ 1 to 2 µg/mL) | 0.17 to 0.35 (≈ 0.246 to 0.507 µg/mL) | – | – | – | – | – | –
3 | AGTKEWLNKAKDFIKEKGLGMLSAAANAALN [Nc3b] | >40 | – | – | >40 | >40 | no hemolysis | no hemolysis | – | –
4 | FLGALLKIGAKLLPSVVGLFKKKQQ [Na1b] | 5.9 to 11.8 | – | – | 0.3 to 5.9 | 0.18 to 2.9 | – | – | 4.5 to 5.9 µM | –
5 | FVKELWDKVKKMGSAAWSAAKGAFA [Nc2a] | 11.7 to 46.9 | – | – | >40 | 5.9 to 11.8 | no hemolysis | – | > 40 µM and 48.2 to 56.9 µM | –
6 | FWGAAAKMLGKALPGLISMFQKN [Nc1a] | 25.8 to 51.6 | – | – | 2.9 to 5.9 | 1.48 to 5.9 | – | – | 12.6 to 13.5 µM | 1.48 to 5.9
7 | GWKDWLNKAKDFIKEKGPEILRAAANAAIN [Nc3a] | 2.3 to 4.7 | – | – | 23.7 to 47.4 | 1.48 to 2.9 | no hemolysis | – | – | –
